Results: patent US20230382925A1, “MODULATORS OF CYSTIC FIBROSIS TRANSMEMBRANE CONDUCTANCE REGULATOR” (VERTEX PHARMACEUTICALS INCORPORATED, priority 2020, published 2023)

Target: CFTR (Homo sapiens, UniProt P13569)
Experiment: Membrane Potential Dye, Enteroid Assay A
Format: cell-based
Settings: for EC50: read-out: Ent. A EC50
Procedure: Base medium (ADF+++) consisted of Advanced […], 2 mM Glutamax, 10 mM HEPES, 1 μg/mL penicillin/streptomycin.
Intestinal enteroid maintenance medium (IEMMN) consisted of ADF+++, 1× B27 supplement, 1× N2 supplement, 1.25 mM N-acetyl cysteine, 10 mM Nicotinamide, 50 ng/mL hEGF, 10 nM Gastrin, 1 μg/mL hR-spondin-1, 100 ng/mL hNoggin, TGF-b type 1 inhibitor A-83-01, 100 μg/mL Primocin, 10 μM P38 MAPK inhibitor SB202190.
Bath 1 Buffer consisted of 1 mM MgCl2, 160 mM NaCl, 4.5 mM KCl, 10 mM HEPES, 10 mM Glucose, 2 mM CaCl2).
Chloride Free Buffer consisted of 1 mM Magnesium Gluconate, 2 mM Calcium Gluconate, 4.5 mM Potassium Gluconate, 160 mM Sodium Gluconate, 10 mM HEPES, 10 mM Glucose.
Bath 1 Dye Solution consisted of Bath 1 Buffer, 0.04% Pluronic F127, 20 μM Methyl Oxonol, 30 μM CaCCinh-A01, 30 μM Chicago Sky Blue.
Chloride Free Dye Solution consisted of Chloride Free Buffer, 0.04% Pluronic F127, 20 μM Methyl Oxonol, 30 μM CaCCinh-A01, 30 μM Chicago Sky Blue.
Chloride Free Dye Stimulation Solution consisted of Chloride Free Dye Solution, 10 μM forskolin, 100 μM IBMX, and 300 nM Compound III.
Human intestinal epithelial enteroid cells were obtained from the Hubrecht Institute for Developmental Biology and Stem Cell Research, Utrecht, The Netherlands and expanded in T-Flasks as previously described (Dekkers J F, Wiegerinck C L, de Jonge H R, Bronsveld I, Janssens H M, de Winter-de Groot K M, Brandsma A M, de Jong N W M, Bijvelds M J C, Scholte B J, Nieuwenhuis E E S, van den Brink S, Clevers H, van der Ent C K, Middendorp S and M Beekman J M. A functional CFTR assay using primary cystic fibrosis intestinal organoids. Nat Med. 2013 July; 19(7):939-45.).
3. Enteroid Cell Harvesting and Seeding
Cells were recovered in cell recovery solution, collected by centrifugation at 650 rpm for 5 min at 4° C., resuspended in TrypLE and incubated for 5 min at 37° C. Cells were then collected by centrifugation at 650 rpm for 5 min at 4° C. and resuspended in IEMM containing 10 μM ROCK inhibitor (RI). The cell suspension was passed through a 40 μm cell strainer and resuspended at 1×10^6 cells/mL in IEMM containing 10 μM RI. Cells were seeded at 5000 cells/well into multi-well plates and incubated for overnight at 37° C., 95% humidity and 5% CO2 prior to assay.
4. Membrane Potential Dye, Enteroid Assay A
Enteroid cells were incubated with test compound in IEMM for 18-24 hours at 37° C., 95% humidity and 5% CO2. […] Briefly, cells were washed 5 times in Bath 1 Buffer. Bath 1 Dye Solution was added, and the cells were incubated for 25 min at room temperature. Following dye incubation, cells were washed 3 times in Chloride Free Dye Solution. Chloride transport was initiated by addition of Chloride Free Dye Stimulation Solution and the fluorescence signal was read for 15 min. […] Chloride transport was then expressed as a percentage of the chloride transport following treatment with 3 μM N-[(6-amino-2-pyridyl)sulfonyl]-6-(3-fluoro-5-isobutoxy-phenyl)-2-[(4S)-2,2,4-trimethylpyrrolidin-1-yl]pyridine-3-carboxamide, 3 μM (R)-1-(2,2-difluorobenzo[d][1,3]dioxol-5-yl)-N-(1-(2,3-dihydroxypropyl)-6-fluoro-2-(1-hydroxy-2-methylpropan-2-yl)-1H-indol-5-yl)cyclopropanecarboxamide and 300 nM acute N-[2,4-bis(1,1-dimethylethyl)-5-hydroxyphenyl]-1,4-dihydro-4-oxoquinoline-3-carboxamide triple combination control (% Activity).

Chain of CFTR (P13569 with tags, fused parts or gaps DEL508-508): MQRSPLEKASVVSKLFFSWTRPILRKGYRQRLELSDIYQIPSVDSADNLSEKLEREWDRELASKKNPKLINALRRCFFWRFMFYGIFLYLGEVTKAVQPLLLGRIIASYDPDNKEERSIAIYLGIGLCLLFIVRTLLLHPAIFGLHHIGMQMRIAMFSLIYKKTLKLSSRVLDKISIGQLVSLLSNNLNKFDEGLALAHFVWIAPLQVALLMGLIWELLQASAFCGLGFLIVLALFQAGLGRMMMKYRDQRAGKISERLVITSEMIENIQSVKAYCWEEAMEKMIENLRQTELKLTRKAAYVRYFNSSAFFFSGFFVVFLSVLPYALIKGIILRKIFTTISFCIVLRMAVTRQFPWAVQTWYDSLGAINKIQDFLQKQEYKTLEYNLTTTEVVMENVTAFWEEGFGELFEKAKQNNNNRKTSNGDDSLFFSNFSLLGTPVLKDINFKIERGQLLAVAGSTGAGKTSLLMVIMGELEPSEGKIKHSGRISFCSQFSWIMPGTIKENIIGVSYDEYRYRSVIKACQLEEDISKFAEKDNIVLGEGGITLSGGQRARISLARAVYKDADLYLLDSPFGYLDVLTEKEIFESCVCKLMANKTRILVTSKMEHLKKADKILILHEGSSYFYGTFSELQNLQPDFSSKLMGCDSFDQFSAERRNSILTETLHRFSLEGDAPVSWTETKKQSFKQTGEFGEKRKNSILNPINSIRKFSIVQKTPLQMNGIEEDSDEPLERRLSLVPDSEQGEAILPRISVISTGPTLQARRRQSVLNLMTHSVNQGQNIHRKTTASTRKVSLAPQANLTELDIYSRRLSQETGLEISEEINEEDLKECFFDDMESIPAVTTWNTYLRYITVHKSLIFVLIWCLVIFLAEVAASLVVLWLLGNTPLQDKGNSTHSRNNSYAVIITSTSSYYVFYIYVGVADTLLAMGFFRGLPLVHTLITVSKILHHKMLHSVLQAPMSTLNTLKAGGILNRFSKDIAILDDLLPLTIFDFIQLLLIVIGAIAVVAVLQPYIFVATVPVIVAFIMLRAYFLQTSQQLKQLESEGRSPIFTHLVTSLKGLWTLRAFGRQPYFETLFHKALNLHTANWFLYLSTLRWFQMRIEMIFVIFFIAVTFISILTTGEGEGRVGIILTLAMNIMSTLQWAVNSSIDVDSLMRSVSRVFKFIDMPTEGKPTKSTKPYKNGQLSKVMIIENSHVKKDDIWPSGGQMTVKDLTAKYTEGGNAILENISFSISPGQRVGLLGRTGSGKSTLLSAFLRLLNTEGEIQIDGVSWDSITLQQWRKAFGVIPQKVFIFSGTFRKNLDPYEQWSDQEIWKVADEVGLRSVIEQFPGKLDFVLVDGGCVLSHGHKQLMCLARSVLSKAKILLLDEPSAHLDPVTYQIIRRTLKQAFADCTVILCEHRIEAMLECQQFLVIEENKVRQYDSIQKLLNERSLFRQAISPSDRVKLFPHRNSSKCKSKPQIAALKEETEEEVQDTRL

Ent. A Max Activity (%) | EC50 [nM] | SMILES
+++ (+++ is >60%) | < 1000 | Cc1cccc(C)c1-c1cc2nc(n1)NS(=O)(=O)c1cccc(c1)C(=O)N(C1CC3(CCN(CCC(C)(C)C)CC3)C1)[C@H](CC(C)C)CO2 [Compound 340]
+++ (+++ is >60%) | < 1000 | COC(=O)N1CCC2(CC1)CC(N1C[C@@H](C)Oc3cc(-c4c(C)cccc4C)nc(n3)NS(=O)(=O)c3cccc(c3)C1=O)C2 [Compound 312]
+++ (+++ is >60%) | < 1000 | Cc1cccc(C)c1-c1cc2nc(n1)NS(=O)(=O)c1cccc(c1)C(=O)N([C@H]1C[C@]3(CCN(C(C)C)C3)C1)[C@H](CC(C)C)CO2 (single isomer, unassigned) [Compound 33]
+++ (+++ is >60%) | < 1000 | Cc1cccc(C)c1-c1cc2nc(n1)NS(=O)(=O)c1cccc(c1)C(=O)N([C@H]1C[C@]3(CCN(C)C3)C1)[C@H](CC(C)C)CO2 [Compound 330]
+++ (+++ is >60%) | < 1000 | Cc1cccc(C)c1-c1cc2nc(n1)NS(=O)(=O)c1cccc(c1)C(=O)N([C@H]1C[C@]3(CCN(C(C)C)C3)C1)[C@H](CC(C)C)CO2 (single isomer, unassigned) [Compound 34]
+++ (+++ is >60%) | < 1000 | COC(=O)N1CCCC2(CC(N3C(=O)c4cccc(c4)S(=O)(=O)Nc4nc(cc(-c5c(C)cccc5C)n4)OC[C@H]3CC(C)C)C2)C1 (stereo partly shown) [Compound 324]
+++ (+++ is >60%) | < 1000 | COC(=O)N1CCCC2(CC(N3C(=O)c4cccc(c4)S(=O)(=O)Nc4nc(cc(-c5c(C)cccc5C)n4)OC[C@H]3CC(C)C)C2)C1 (stereo partly shown) [Compound 327]
+++ (+++ is >60%) | < 1000 | Cc1cccc(C)c1-c1cc2nc(n1)NS(=O)(=O)c1cccc(c1)C(=O)N([C@H]1C[C@]3(CCCCN3C)C1)[C@H](CC(C)C)CO2 [Compound 331]
++ (++ is 30-60%) | < 1000 | CC(=O)N1C[C@H]2C[C@H](N3C(=O)c4cccc(c4)S(=O)(=O)Nc4nc(cc(-c5c(C)cccc5C)n4)OC[C@H]3CC(C)C)C[C@H]2C1 [Compound 336]
+++ (+++ is >60%) | < 1000 | Cc1cccc(C)c1-c1cc2nc(n1)NS(=O)(=O)c1cccc(c1)C(=O)N([C@H]1C[C@]3(CCN(C)C3)C1)[C@H](CC(C)C)CO2 (stereo in doubt) [Compound 333]
+++ (+++ is >60%) | < 1000 | Cc1cccc(C)c1-c1cc2nc(n1)NS(=O)(=O)c1cccc(c1)C(=O)N(C1CCC(C)(C)C1)[C@H](CC(C)C)CO2 (stereo partly shown) [Compound 348]
+++ (+++ is >60%) | < 1000 | Cc1cccc(C)c1-c1cc2nc(n1)NS(=O)(=O)c1cccc(c1)C(=O)N(C1CC3(COC3)C1)[C@H](CC(C)C)CO2 [Compound 29, (11R)-6-(2,6-Dimethylphenyl)-11-isobutyl-12-(2-oxaspiro[3.3]heptan-6-yl)-2,2-dioxo-9-oxa-2λ^6-thia-3,5,12,19-tetrazatricyclo[12.3.1.14,8]nonadeca-1(18),4(19),5,7,14,16-hexaen-13-one]
+++ (+++ is >60%) | < 1000 | Cc1cccc(C)c1-c1cc2nc(n1)NS(=O)(=O)c1cccc(c1)C(=O)N([C@H]1CC3(C[C@H](C(=O)N(C)C)C3)C1)[C@H](CC(C)C)CO2 (stereo partly shown) [Compound 342]

The next lines start with the compound.

SMILES | Ent. A Max Activity (%) | EC50 [nM]
Cc1cccc(C)c1-c1cc2nc(n1)NS(=O)(=O)c1cccc(c1)C(=O)N(C1CC(C(=O)O)C1)[C@H](CC(C)C)CO2 (stereo partly drawn) [Compound 35, 3-[(11R)-6-(2,6-dimethylphenyl)-11-isobutyl-2,2,13-trioxo-9-oxa-2λ^6-thia-3,5,12,19-tetrazatricyclo[12.3.1.14,8]nonadeca-1(18),4(19),5,7,14,16-hexaen-12-yl]cyclobutanecarboxylic acid] | +++ (+++ is >60%) | 3000 to 30000
CC(C)C[C@@H]1COc2cc(-c3ccccc3-c3ccccc3)nc(n2)NS(=O)(=O)c2cccc(c2)C(=O)N1C1CC2(CCN(C)CC2)C1 [Compound 471] | +++ (+++ is >60%) | < 1000
Cc1cccc(C)c1-c1cc2nc(n1)NS(=O)(=O)c1cccc(c1)C(=O)N(C1CCCC1)[C@H](CC(C)C)CO2 [Compound 30, (11R)-12-Cyclopentyl-6-(2,6-dimethylphenyl)-11-isobutyl-2,2-dioxo-9-oxa-2λ^6-thia-3,5,12,19-tetrazatricyclo[12.3.1.14,8]nonadeca-1(18),4(19),5,7,14,16-hexaen-13-one] | +++ (+++ is >60%) | < 1000
Cc1cccc(C)c1-c1cc2nc(n1)NS(=O)(=O)c1cccc(c1)C(=O)N(C1CC3(CCN(C(C)C)CC3)C1)[C@H](CC(C)C)CO2 [Compound 17, (11R)-6-(2,6-Dimethylphenyl)-11-isobutyl-12-(7-isopropyl-7-azaspiro[3.5]nonan-2-yl)-2,2-dioxo-9-oxa-2λ^6-thia-3,5,12,19-tetrazatricyclo[12.3.1.14,8]nonadeca-1(18),4(19),5,7,14,16-hexaen-13-one] | +++ (+++ is >60%) | < 1000
Cc1cccc(C)c1-c1cc2nc(n1)NS(=O)(=O)c1cccc(c1)C(=O)N([C@H]1C[C@@H](O)C1)[C@H](CC(C)C)CO2 (single isomer, unassigned) [Compound 43] | +++ (+++ is >60%) | 1000 to 3000
Cc1cccc(C)c1-c1cc2nc(n1)NS(=O)(=O)c1cccc(c1)C(=O)N([C@H]1C[C@@H](CO)C1)[C@H](CC(C)C)CO2 (single isomer, unassigned) [Compound 40] | +++ (+++ is >60%) | 1000 to 3000
Cc1cccc(C)c1-c1cc2nc(n1)NS(=O)(=O)c1cccc(c1)C(=O)N([C@H]1C[C@@H](O)C1)[C@H](CC(C)C)CO2 (single isomer, unassigned) [Compound 44] | +++ (+++ is >60%) | < 1000
COC(=O)N1CCC2(CC1)CC(N1C(=O)c3cccc(c3)S(=O)(=O)Nc3nc(cc(C4CCCCC4(C)C)n3)OC[C@H]1CC(C)C)C2 (stereo partly shown) [Compound 396] | ++ (++ is 30-60%) | < 1000
CC(C)C[C@@H]1COc2cc(-c3ccccc3C(C)C)nc(n2)NS(=O)(=O)c2cccc(c2)C(=O)N1C1CC2(CCN(C)CC2)C1 [Compound 11, (11R)-11-Isobutyl-6-(2-isopropylphenyl)-12-(7-methyl-7-azaspiro[3.5]nonan-2-yl)-2,2-dioxo-9-oxa-2 λ6-thia-3,5,12,19-tetrazatricyclo[12.3.1.14,8]nonadeca-1(18),4,6,8(19),14,16-hexaen-13-one] | +++ (+++ is >60%) | < 1000
COC(=O)N1CCC2(CC1)CC(N1C(=O)c3cccc(c3)S(=O)(=O)Nc3cc(cc(-c4c(C)cccc4C)n3)OC[C@H]1CC(C)C)C2 [Compound 196, Methyl 2-[(11R)-6-(2,6-dimethylphenyl)-11-isobutyl-2,2,13-trioxo-9-oxa-2λ^6-thia-3,5,12-triazatricyclo[12.3.1.14,8]nonadeca-1(18),4(19),5,7,14,16-hexaen-12-yl]-7-azaspiro[3.5]nonane-7-carboxylate] | +++ (+++ is >60%) | < 1000
